Measured values reported in article PMC2680345 (Journal of Antimicrobial Chemotherapy, 2009).
Read-outs that look alike come from different tables or passages of the source.

How the values were obtained:
[1] = cited from earlier work
[2] = for θ2 (factor associated with the covariate) / θ1 (typical value of V/F) / θ1 (typical value of ka): univariate model
clinical = settings: both, human, in vivo
Plasma concentrations = format: in vivo; settings: human, oral, ritonavir AUC0–24, median, external dataset, 18 HIV-infected patients, atazanavir/ritonavir/saquinavir 200/100/1600 mg once daily
[3] = final model, 300/100 mg once daily
[4] = influence of Black-African ethnicity on V/F: V = θ1 * θ2^AFR
[5] = influence of Black-African ethnicity on ka: ka = θ1 * θ2^AFR
[6] = influence of HIV status on V/F: V = θ1 * θ2^HIV
[7] = influence of HIV status on ka: ka = θ1 * θ2^HIV
[8] = influence of Hispanic ethnicity on ka: ka = θ1 * θ2^HSP
[9] = influence of RTV AUC0–24 on V/F: V = θ1 * (RTV/7.52)^θ2
[10] = influence of SQV on V/F: V = θ1 * θ2^SQV
[11] = influence of TDF on V/F: V = θ1 * θ2^TDF
[12] = influence of TDF on ka: ka = θ1 * θ2^TDF
[13] = influence of sex on V/F: V = θ1 * θ2^SEX
[14] = influence of weight on V/F: V = θ1 + θ2 * (WT − 76.2)

## COC(=O)N[C@H](C(=O)N[C@@H](Cc1ccccc1)[C@@H](O)CN(Cc1ccc(-c2ccccn2)cc1)NC(=O)[C@@H](NC(=O)OC)C(C)(C)C)C(C)(C)C [atazanavir, Atazanavir]
[1]
  AUC0–24 lower in HIV patients compared with healthy individuals: ~20%
  minimum concentrations lower in HIV patients compared with healthy individuals: ~50%
  peak concentrations lower in HIV patients compared with healthy individuals: ~30%
[1]; population analysis by Colombo et al.
  half-life: 8.8 h
[2]; basic model
  IIV CL/F (inter-individual variability): 48%
  IIV V/F (inter-individual variability): 48%
  IIV ka (inter-individual variability): 154%
[2]; basic model (no covariates), 300/100 mg once daily
  CL/F (apparent oral clearance): 7.6 L/h
[2]; females
  mean individual predicted CL/F: 6.40 L/h
[2]; [3]
  IIV CL/F (inter-individual variability): 29%
  IIV V/F (inter-individual variability): 48%
  IIV ka (inter-individual variability): 154%
[2]; final versus basic model
  reduction of variability of CL/F by inclusion of ritonavir AUC0–24 as covariate: 19%
[2]; males
  mean individual predicted CL/F: 8.99 L/h
[2]; not significant
  lower mean individual predicted CL/F in females compared with males: ~29%
[2]; influence of Black-African ethnicity on CL/F: CL = θ1 * θ2^AFR
  θ2 (factor associated with the covariate): 0.91
[2]; [4]
  θ1 (typical value of V/F): 100
  θ2 (factor associated with the covariate): 1.23
[2]; [5]
  θ1 (typical value of ka): 3.28
  θ2 (factor associated with the covariate): 1.44
[2]; influence of HIV status on CL/F: CL = θ1 * θ2^HIV
  θ2 (factor associated with the covariate): 0.80
[2]; [6]
  θ1 (typical value of V/F): 118
  θ2 (factor associated with the covariate): 0.81
[2]; [7]
  θ1 (typical value of ka): 2.77
  θ2 (factor associated with the covariate): 1.42
[2]; influence of Hispanic ethnicity on CL/F: CL = θ1 * θ2^HSP
  θ2 (factor associated with the covariate): 1.60
[2]; [8]
  θ1 (typical value of ka): 2.81
  θ2 (factor associated with the covariate): 4.42
[2]; influence of RTV AUC0–24 on CL/F: CL = θ1 * (RTV/7.52)^θ2
  θ2 (factor associated with the covariate): −0.84
[2]; [9]
  θ1 (typical value of V/F): 104
  θ2 (factor associated with the covariate): −0.50
[2]; influence of SQV (1600 mg once daily) on CL/F: CL = θ1 * θ2^SQV
  θ2 (factor associated with the covariate): 0.67
[2]; [10]
  θ1 (typical value of V/F): 123
  θ2 (factor associated with the covariate): 0.64
[2]; influence of TDF (300 mg once daily) on CL/F: CL = θ1 * θ2^TDF
  θ2 (factor associated with the covariate): 0.83
[2]; [11]
  θ1 (typical value of V/F): 108
  θ2 (factor associated with the covariate): 0.71
[2]; [12]
  θ1 (typical value of ka): 3.43
  θ2 (factor associated with the covariate): 1.10
[2]; influence of sex on CL/F: CL = θ1 * θ2^SEX
  θ2 (factor associated with the covariate): 0.77
[2]; [13]
  θ1 (typical value of V/F): 98.7
  θ2 (factor associated with the covariate): 1.26
[2]; influence of weight on CL/F: CL = θ1 + θ2 * (WT − 76.2)
  θ2 (factor associated with the covariate): 0.13
[2]; [14]
  θ1 (typical value of V/F): 105
  θ2 (factor associated with the covariate): 1.26
clinical
  Vd/F: 103 L

## CC(C)c1nc(CN(C)C(=O)N[C@H](C(=O)N[C@@H](Cc2ccccc2)C[C@H](O)[C@H](Cc2ccccc2)NC(=O)OCc2cncs2)C(C)C)cs1 [ritonavir]
Plasma concentrations
  AUC(0-t): 9060 ng·h/mL
